# Test results published in ChEMBL document CHEMBL1157539, “Thousands of chemical starting points for antimalarial lead identification” (Nature, 2010).
# Tested on: Plasmodium falciparum
# Test: GSK_TCMDC: Inhibition of Plasmodium falciparum 3D7 in whole erythrocytes, using parasite LDH activity as an index of growth.
# Format: functional, organism-based
# Conditions: Plasmodium falciparum, 3D7
row,SMILES,XC50
1,CC1CN(c2cnn(Cc3cccc(NC(=O)Nc4ccc(F)cc4[N+](=O)[O-])c3)c(=O)c2Cl)CC(C)N1 (configuration not stated),866 nM
2,O=C(CSc1nccn1Cc1ccco1)Nc1cc(C(F)(F)F)ccc1Cl,822 nM
3,CCN(CCCN1CCCCC1)c1cc(C)nc(Nc2ccc(C)cc2C(F)(F)F)n1,544 nM
4,CC(C)c1sc(N2CCN(C)CC2)nc1C(=O)NCCc1cccc(Cl)c1,1490 nM
5,CC1CCN(CC[C@H]2CCCN2S(=O)(=O)c2cccc(NC(=O)c3ccc(-c4ccc(Cl)cc4)o3)c2)CC1,693 nM
6,Cc1noc(C)c1-c1ccc2c(Nc3ccc(C#N)cc3)c(C(N)=O)cnc2c1,755 nM
7,Cc1ncccc1C(=O)Nc1ccc(-c2cccc(-c3nc4cccc(C)c4[nH]3)c2)cc1,733 nM
8,COc1ccc2ncc(Cl)c(CCN3CCC(NCc4ccc5c(n4)NC(=O)CO5)CC3)c2c1,470 nM
9,O=C1Nc2cccc3c2C1(CCCCN1CC=C(c2c[nH]c4ncccc24)CC1)CCC3 (configuration not stated),395 nM
10,CS(=O)(=O)c1ccc(CNCc2ccc(-c3cccc(-c4nc5cc(F)ccc5[nH]4)c3)cc2)cc1,315 nM
11,CC(CN1CCN(C)CC1)C(=O)Nc1cccc(-c2ccc(-c3nc4cc(F)ccc4[nH]3)cc2)c1 (configuration not stated),807 nM
12,Cc1cnc(Nc2cccnc2)nc1Nc1ccccc1C(=O)NC(C)C,1200 nM
13,COc1ccc(CCNCC(O)COc2nccc3c(S(=O)(=O)N4CCCNCC4)cccc23)cc1OC (configuration not stated),269 nM
14,Oc1cc(Nc2ccnc3cc(-c4cccc(CN5CCOCC5)c4)ccc23)c(F)cc1Cl,207 nM
15,COc1cc(NC(=O)c2c(-c3c(F)cccc3Cl)noc2C)c(OC)cc1Cl,861 nM
16,CNC(=O)c1c(NC(=O)c2cccs2)sc2c1CCCC2,818 nM
17,O=C(C=Cc1ccc(Cl)c(Cl)c1)NCCCCCN1CCCC(CCCNC(=O)c2ccc3c(c2)OCO3)C1 (configuration not stated),1220 nM
18,NC1CCN(c2cnn(Cc3cccc(NC(=O)Nc4ccc(-c5ccccc5)cc4)c3)c(=O)c2Cl)CC1,1140 nM
19,COc1cc(C=NNc2ccnc3cc(Cl)ccc23)ccc1O,134 nM
20,CCc1c(C(=O)NC2CCC(N3CCC(c4ccccc4OC)CC3)CC2)[nH]c2ccc(OC)cc12 (configuration not stated),1110 nM
21,Nc1c(Cl)cc(C(O)CNCCCCCCOCCc2ccc(O)cc2)cc1Cl (configuration not stated),725 nM
22,NC(=O)c1ccc(NCC(=O)Nc2cccc(-c3cccc(-c4nc5cc(C(F)(F)F)ccc5[nH]4)c3)c2)cc1,270 nM
23,c1ccc(Oc2ccc(Nc3nc(NCCc4c[nH]cn4)nc(NC4CCCC4)n3)cc2)cc1,1030 nM
24,Fc1ccc2[nH]c(-c3cccc(-c4ccc(CNCc5cnn(-c6ccccc6)n5)cc4)c3)nc2c1,917 nM
25,Cc1cc(N[C@@H](Cc2ccccc2)C(=O)NCc2cccc(F)c2)nc(NCc2ccccc2C)n1,981 nM

row,SMILES,XC50
1,CCC(Nc1noc(-c2c(-c3ccccc3)noc2C)n1)c1ccccc1 (configuration not stated),973 nM
2,CC(C)c1ccc(S(=O)(=O)N(c2ccc3c(c2)OCO3)C2CCN(Cc3ccccc3)C2)cc1 (configuration not stated),350 nM
3,CN(C)c1ccc2c(c1)Sc1cc(N(C)C)ccc1N2C(=O)c1cccc(C(=O)O)c1,184 nM
4,O=C(Nc1ccc(-c2cccc(-c3nc4cc(F)ccc4[nH]3)c2)cc1)c1cnn2cccnc12,647 nM
5,Nc1nccc2ccc(OC3CCCCC3)cc12,602 nM
6,Nc1nc(N)c2c3c(ccc2n1)CCC3,928 nM
7,Cc1cccc2nc(-c3ccc(-c4cccc(CN5CCN(CCN6CCOCC6)CC5)c4)s3)[nH]c12,153 nM
8,COc1cc(OC)nc(-c2cccc(NC(=O)c3ccc4c(=O)n(CCN5CCCCC5)cnc4c3)c2)n1,744 nM
9,Cc1ccc(O)cc1Nc1ccnc2ccc(-c3csc(CNCCN4CCOCC4)n3)cc12,153 nM
10,CC(C)N1CCN(C(CN2CCN(CCCOc3cccc(F)c3)CC2)c2ccc(F)cc2)CC1 (configuration not stated),912 nM
11,COc1ccc(Cn2c(Nc3cccc(C(F)(F)F)c3)nc3cc(C(=O)NCCN4CCCC4)cnc32)cc1Cl,915 nM
12,Cc1ccc(C2CC(c3cccs3)=NN2C(=O)c2ccc(Br)o2)cc1 (configuration not stated),887 nM
13,CC(C)CC(=O)Nc1cc(=O)[nH]c2nc(-c3ccccc3)nn12,351 nM
14,COc1ccc2nccc([C@@H](O)CN3CCC(NCCOc4cc(F)cc(F)c4)CC3)c2c1,155 nM
15,O=C1CC(C(=O)O)CC(=O)N1,763 nM
16,O=C(Nc1cccc(-c2cccc(-c3nc4cc(C(F)(F)F)ccc4[nH]3)c2)c1)c1c[nH]cn1,206 nM
17,COc1cccc2cc(C(=O)N[C@@H](CC(C)C)C(=O)N[C@H](/C=N/N3C(=O)CN(Cc4ccccc4)C3=O)CCc3ccccc3)oc12,618 nM
18,COc1cc(NC(=O)c2cc([N+](=O)[O-])ccc2NC(=O)CNC2CCCCC2C)cc(OC)c1 (configuration not stated),1730 nM
19,Cc1[nH]c(C)c(Cc2ccc(Oc3ccc(OC(F)(F)F)cc3)cc2)c(=O)c1Br,686 nM
20,NC(=O)COc1cccc2c1CCN(CCN1CCC(NC(=O)c3ccc(-c4ccc(Cl)cc4)cc3)CC1)C2,841 nM
21,FC(F)(F)c1cc(Nc2ncnc3ccc(Br)cc23)ccc1OCc1ccccc1,1080 nM
22,CC(C)CCN1C(=O)C(NC(=O)Oc2ccccc2)C(=O)N(CC23CC4CC(CC(C4)C2)C3)c2ccccc21 (configuration not stated),752 nM
23,O=C(Nc1cccc(-c2ccc(-c3nc4cc(C(F)(F)F)ccc4[nH]3)cc2)c1)c1csnn1,686 nM
24,Cc1cc(N2C(N)=NC(N)=NC2(C)C)ccc1Cl,20.9 nM
25,CN1CCN(c2cc3c(cc2Cl)CCN3C(=O)Cc2ccc(Cl)c(NC(=O)Nc3cccc([N+](=O)[O-])c3)c2)CC1,718 nM

row,SMILES,XC50
1,CCCCC(=O)NC(c1cccs1)c1cc(Cl)c2cccnc2c1O (configuration not stated),380 nM
2,COc1cc2nc(N(C)CC3COc4ccccc4O3)nc(N)c2cc1OC (configuration not stated),1550 nM
3,COc1cc2nc(C)nc(Nc3cccc(Br)c3)c2cc1OC,356 nM
4,NC(=O)c1cccc(C(=O)Nc2cccc(-c3cccc(-c4nc5ccccc5[nH]4)c3)c2)c1,548 nM
5,CCCn1c(Sc2ccc(C#N)c([N+](=O)[O-])c2)nnc1-c1ccc(Cl)cc1,537 nM
6,Cn1c(NC(=O)C2CCC(CNC(=O)c3ccc(O)c(-c4cccc([N+](=O)[O-])c4)c3)CC2)nc2ccccc21 (configuration not stated),982 nM
7,Cn1cncc1-c1cc2c(Nc3ccc(OCc4ccccc4)cc3)ncnc2cn1,268 nM
8,Cc1cnc(N2CCN(CC3CCN(C)CC3)CC2)nc1Oc1ccc(-n2ccnc2)cc1,725 nM
9,COc1cccc2c(O)c(CNC3CCCCC3)ccc12,630 nM
10,O=C(Nc1ccc(OCc2ccccc2)cc1)c1nc2ccccc2nc1Cl,254 nM
11,CCc1c[nH]c2c(N3CCCC3=O)cc(C(=O)N[C@@H](Cc3ccccc3)[C@H](O)CNC(C)(C)c3cccc(OC)c3)cc12,192 nM
12,COCCN1CCC(CNCC(C)(C)c2nc(-c3ccc(Cl)c(O)c3)c(-c3ccncc3)[nH]2)CC1,753 nM
13,COc1ccc(CNC(=O)Nc2cc3cc(-c4ccc(CN5CCCC5)cc4)ccc3n3c(C)nnc23)cc1,654 nM
14,O=C(Nc1cccc(-c2ccc(-c3nc4cc(F)ccc4[nH]3)s2)c1)c1cccnc1,608 nM
15,CNCC(O)c1cc(Cl)c(Cl)cc1C (configuration not stated),922 nM
16,OC(CN1CCN(C2CCCCC2)CC1)Cn1c2ccccc2c2cc(Br)ccc21 (configuration not stated),857 nM
17,COc1cc(F)c2ncc(F)c([C@@H](O)CN3CCC(NCc4cc5c(cn4)OCCO5)CC3)c2c1,477 nM
18,CC[C@H]1CN2CC[C@@H]1C[C@H]2[C@H](O)c1cc(-c2ccc(Cl)c(Cl)c2)nc2ccc(O)cc12,262 nM
19,CCOC(=O)c1ccc(NC(=O)N[C@@H](Cc2ccccc2)C(=O)NC2CCN(Cc3ccc(O)c(OC)c3)C2)cc1 (some centres not stated),989 nM
20,C=C[C@H]1CN2CC[C@@H]1C[C@H]2[C@H](O)c1cc(-c2ccc(F)cc2)nc2ccc(OC)cc12,169 nM
21,CCC(C)(CC)C(=O)n1ncc2c3c(N)nc(N)nc3ccc21,6 nM
22,O=C(CCc1c[nH]cn1)Nc1ccc(-c2ccc(-c3nc4cc(F)ccc4[nH]3)cc2)cc1,693 nM
23,O=C(Nc1ccc(Cl)cc1)Nc1cccc(-c2cc(CNCCc3ccccc3)oc2-c2ccncc2)c1,279 nM
24,O=C(NCC1CCC(C(=O)NC2CCCc3ccccc32)CC1)c1ccc(O)c(-c2ccc(Cl)c(Cl)c2)c1 (configuration not stated),1020 nM
25,O=C(NC(Cc1ccccc1)C(=O)O)c1cc(=O)c2ccccc2o1 (configuration not stated),191 nM

row,SMILES,XC50
1,Nc1c2c(nc3ccc(C(=O)Nc4cc(I)c(O)c(I)c4)cc13)CCCC2,1010 nM
2,COc1cccc(C(=O)Nc2nonc2-c2ccc(OC)c(OC)c2)c1,801 nM
3,O=C(Nc1cc(C(F)(F)F)cc(C(F)(F)F)c1)c1cc(Cl)ccc1O [IMD-0354],1310 nM
4,CSc1nccc(-c2ccc3ccnc(N)c3c2)n1,925 nM
5,O=C(O)C[C@H](NC(=O)[C@@H]1CCCN1C(=O)c1cccc(-c2ccc(Cl)c(Cl)c2)c1)C(=O)O,863 nM
6,Cc1ccc(Oc2cnn(C)c(=O)c2Nc2cccc(C(=O)NCCc3ccccn3)c2)c(C)c1,494 nM
7,CC(C)(C)c1ccc(CN2CCC(CNC(=O)c3cc(-c4ccccc4)nc4ccccc34)CC2)cc1,1020 nM
8,COc1ccccc1CCNc1nc(C)cc(N[C@@H](CC(C)C)C(=O)NCCc2ccccc2)n1,718 nM
9,COCCCN=C(S)NN=C(C)c1ccccn1,296 nM
10,CC1CNC(c2ccc(NC(=O)Nc3ccc(C4=NC(C)CN4)cc3)cc2)=N1 (configuration not stated),379 nM
11,Brc1cc2c(cc1C=NNc1nc(=Nc3ccccc3)[nH]c(=Nc3ccccc3)[nH]1)OCO2,798 nM
12,CC(C)(CN)c1cc(-c2ccc(Cl)c(O)c2)c(-c2ccncc2)o1,1140 nM
13,Cc1ccc(NC(=O)Nc2ccc(S(=O)(=O)c3ccc(NC(=O)Nc4ccc(C)c(Cl)c4)cc3)cc2)cc1Cl,754 nM
14,O=C(NCCN1CCOCC1)c1ccc(O)c(-c2cccc(C(F)(F)F)c2)c1,752 nM
15,COc1c(C2=CCN(CCCCNC(=O)c3ccc(-c4ccc(C#N)cc4)cc3)CC2)ccc2c1CCCC2,911 nM
16,O=C(N[C@@H](Cc1ccccc1)C(=O)NC1CCCCC1)c1ccc(O)c(-c2cccc(C(F)(F)F)c2)c1,809 nM
17,Clc1ccc(Sc2cncnc2N2CCOCC2)cc1,40.2 nM
18,O=C(NC1CCN(Cc2ccccc2)CC1)c1cc(-c2cccnc2)nc2ccc(Cl)cc12,759 nM
19,O=c1cc(NCC2(CNCc3cn(Cc4ccccc4)c4ccccc34)CCCCC2)[nH]c2ccccc12,684 nM
20,Cc1cc(N[C@@H](Cc2ccccc2)C(=O)NCCCOC(C)C)nc(NCCc2ccc(F)cc2)n1,934 nM
21,COc1ccc(CC(C)NCC(O)c2cccc(C(F)(F)F)c2)cc1 (configuration not stated),1580 nM
22,CS(=O)(=O)CCNCc1nc(-c2ccc3c(=O)[nH]cnc3c2)cs1,1010 nM
